# According to patent publication US20240351997A1, “NOVEL PARP7 INHIBITOR AND USE THEREOF” (SHANGHAI QILU PHARMACEUTICAL RESEARCH AND DEVELOPMENT …, priority 2021, published 2024):
# Biological target: PARP7 (Homo sapiens (Human), UniProt Q7Z3E1)
# Experiment: In vitro enzymology experiment of PARP7 (enzymatic inhibition)
# Type: biochemical
# Procedure: II. In Vitro Enzymology Experiment of PARP2, 3, 5A, 5B, 7, 12, and 15
# 1. Preparation of 384-well histone-coated plate: 25 μL of histone solution was added to each well, and the plate was incubated overnight at 4° C.
# 2. Preparation of PBST buffer, blocking buffer, and assay buffer
# 3. The 384-well histone-coated plate was washed three times with PBST buffer. The plate was blocked by 50 μL of blocking buffer for 1 hour at room temperature. The plate was then washed three times with PBST buffer.
# 2000× compound was prepared in a 96-well source plate. 50 nL of the compound was transferred from the source plate to a 96-well intermediate plate, and 39.95 μL of assay buffer was added to each well. The plate was shaken well and centrifuged at 1000 rpm for 1 minute.
# 5 μL of compound DMSO solution was transferred to each well.
# An enzyme mixture was incubated at 25° C. for 10 minutes.
# 10 μL of the enzyme mixture was added, and incubated with the compound at room temperature for 10 minutes.
# 10 μL of assay buffer was added to the negative control well of the assay plate.
# The plate was then washed three times with PBST buffer.
# 25 μL of Stre-HRP was added.
# The plate was incubated at room temperature for 1 hour and washed three times with PBS buffer.
# 25 μL of QuantaRed Enhancer mix was added. The plate was incubated for 10 minutes.
# 2.5 μL of QuantaRed Stop Solution was added to terminate the peroxidase reaction, and the plate was shaken for 10 to 30 seconds.
# 7. Paradigm was used to read the plate immediately to detect the readings at Ex550/Em620.
# Using equation (1) to fit the data in Excel to obtain inhibition values
# Using equation (2) to fit the data in XL-Fit to obtain IC50 values
# Y is the percentage of inhibition, and X is the compound concentration.
# Chain of PARP7 (Q7Z3E1 whole entry): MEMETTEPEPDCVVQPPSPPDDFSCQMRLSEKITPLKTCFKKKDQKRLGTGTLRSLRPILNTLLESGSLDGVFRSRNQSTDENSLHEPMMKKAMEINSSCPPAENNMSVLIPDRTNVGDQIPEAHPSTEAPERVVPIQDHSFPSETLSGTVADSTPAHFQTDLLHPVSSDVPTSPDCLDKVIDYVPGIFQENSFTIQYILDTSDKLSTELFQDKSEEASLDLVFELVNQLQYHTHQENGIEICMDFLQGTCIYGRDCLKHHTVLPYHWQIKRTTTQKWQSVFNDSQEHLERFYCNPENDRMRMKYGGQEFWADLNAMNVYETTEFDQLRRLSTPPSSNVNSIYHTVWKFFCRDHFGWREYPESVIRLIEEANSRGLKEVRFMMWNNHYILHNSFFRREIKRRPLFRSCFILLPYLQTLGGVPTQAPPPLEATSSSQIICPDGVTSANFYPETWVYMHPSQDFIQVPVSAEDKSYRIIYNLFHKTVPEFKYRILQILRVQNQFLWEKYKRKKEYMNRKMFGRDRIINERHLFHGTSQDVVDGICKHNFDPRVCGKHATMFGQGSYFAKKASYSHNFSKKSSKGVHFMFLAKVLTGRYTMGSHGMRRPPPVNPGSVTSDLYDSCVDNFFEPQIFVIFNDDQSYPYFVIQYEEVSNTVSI
row,IC50,Compound
1,7.22 nM,"O=C(CCO[C@@H]1CCC[C@@H]1c1c[nH]c(=O)c(C(F)(F)F)c1)N1CCN(c2ncc(C(F)(F)F)cn2)CC1 [Example 47, 5-((1R,2R)-2-(3-Oxo-3-(4-(5-(trifluoromethyl)pyrimidin-2-yl)piperazin-1-yl)propoxy)cyclopentyl)-3-(trifluoromethyl)pyridin-2(1H)-one]"
2,0.76 nM,"C[C@@H](Cc1c[nH]c(=O)c(C(F)(F)F)c1)OC(=O)N1CCN(c2ncc(C(F)(F)F)s2)CC1 [Example 49, (S)-1-(6-Oxo-5-(trifluoromethyl)-1,6-dihydropyridin-3-yl)propan-2-yl 4-(5-(trifluoromethyl)thiazol-2-yl)piperazine-1-carboxylate]"
3,0.52 nM,"C[C@@H](Cc1c[nH]c(=O)c(C(F)(F)F)c1)OC(=O)N1CCN(c2ncc(C(F)F)cn2)CC1 [Example 50, (S)-1-(6-Oxo-5-(trifluoromethyl)-1,6-dihydropyridin-3-yl)propan-2-yl 4-(5-(difluoromethyl)pyrimidin-2-yl)piperazine-1-carboxylate]"
4,1.34 nM,"C[C@@H](Cc1c[nH]c(=O)c(C(F)(F)F)c1)OC(=O)N[C@H]1CCN(c2ncc(C(F)(F)F)cn2)C1 [Example 51, (S)-1-(6-Oxo-5-(trifluoromethyl)-1,6-dihydropyridin-3-yl)propan-2-yl ((S)-1-(5-(trifluoromethyl)pyrimidin-2-yl)pyrrolidin-3-yl)carbamate]"
5,1.18 nM,"C[C@@H](Cc1c[nH]c(=O)c(C(F)(F)F)c1)OC(=O)N[C@@H]1CCN(c2ncc(C(F)(F)F)cn2)C1 [Example 52, (S)-1-(6-Oxo-5-(trifluoromethyl)-1,6-dihydropyridin-3-yl)propan-2-yl ((R)-1-(5-(trifluoromethyl)pyrimidin-2-yl)pyrrolidin-3-yl)carbamate]"
6,2.3 nM,"C[C@@H](Cc1c[nH]c(=O)c(C(F)(F)F)c1)OC(=O)N1CC[C@@H](Nc2ncc(C(F)(F)F)cn2)C1 [Example 53, (S)-1-(6-Oxo-5-(trifluoromethyl)-1,6-dihydropyridin-3-yl)propan-2-yl (R)-3-((5-(trifluoromethyl)pyrimidin-2-yl)amino) pyrrolidine-1-carboxylate]"
7,6.23 nM,"C[C@@H](Cc1c[nH]c(=O)c(C(F)(F)F)c1)OC(=O)N1CC(Nc2ncc(C(F)(F)F)cn2)C1 [Example 54, (S)-1-(6-Oxo-5-(trifluoromethyl)-1,6-dihydropyridin-3-yl)propan-2-yl 3-((5-(trifluoromethyl)pyrimidin-2-yl)amino) azetidine-1-carboxylate]"
8,3.42 nM,"C[C@@H](Cc1c[nH]c(=O)c(C(F)(F)F)c1)OC(=O)NC1CCN(c2ncc(C(F)(F)F)cn2)CC1 [Example 55, (S)-1-(6-Oxo-5-(trifluoromethyl)-1,6-dihydropyridin-3-yl)propan-2-yl (1-(5-(trifluoromethyl)pyrimidin-2-yl)piperidin-4-yl)carbamate]"
9,2.27 nM,"O=C(O[C@H]1CCC[C@@H]1c1c[nH]c(=O)c(C(F)(F)F)c1)N1CCN(c2ncc(C(F)(F)F)cn2)CC1 [Example 56, (1S,2R)-2-(6-Oxo-5-(trifluoromethyl)-1,6-dihydropyridin-3-yl)cyclopentyl 4-(5-(trifluoromethyl)pyrimidin-2-yl)piperazine-1-carboxylate]"
10,0.74 nM,"O=C(CO[C@H]1CCC[C@@H]1c1c[nH]c(=O)c(C(F)(F)F)c1)N1CCN(c2ncc(C(F)(F)F)cn2)CC1 [Example 57, 5-((1R,2S)-2-(2-Oxo-2-(4-(5-(trifluoromethyl)pyrimidin-2-yl)piperazin-1-yl)ethoxy)cyclopentyl)-3-(trifluoromethyl)pyridin-2(1H)-one]"
11,3.18 nM,"O=C(COCC1CCCC1c1c[nH]c(=O)c(C(F)(F)F)c1)N1CCN(c2ncc(C(F)(F)F)cn2)CC1 (centres unmarked) [Example 58, 5-(2-((2-Oxo-2-(4-(5-(trifluoromethyl)pyrimidin-2-yl)piperazin-1-yl)ethoxy)methyl)cyclopentyl)-3-(trifluoromethyl)pyridin-2(1H)-one]"
12,1.06 nM,"O=C(OCC1CCCC1c1c[nH]c(=O)c(C(F)(F)F)c1)N1CCN(c2ncc(C(F)(F)F)cn2)CC1 (centres unmarked) [Example 59, (2-(6-Oxo-5-(trifluoromethyl)-1,6-dihydropyridin-3-yl)cyclopentyl)methyl 4-(5-(trifluoromethyl)pyrimidin-2-yl)piperazine-1-carboxylate]"
13,7.02 nM,"CC(C(=O)N1CCN(c2ncc(C(F)(F)F)cn2)CC1)c1c[nH]c(=O)c(C(F)(F)F)c1 (centres unmarked) [Example 60, 5-(1-Oxo-1-(4-(5-(trifluoromethyl)pyrimidin-2-yl)piperazin-1-yl)propan-2-yl)-3-(trifluoromethyl)pyridin-2(1H)-one]"
14,0.72 nM,"Cc1cc(Cc2c[nH]c(=O)c(C(F)(F)F)c2)cc(C(=O)N2CCN(c3ncc(C(F)(F)F)cn3)CC2)c1 [Example 61, 5-(3-Methyl-5-(4-(5-(trifluoromethyl)pyrimidin-2-yl)piperazine-1-carbonyl)benzyl)-3-(trifluoromethyl)pyridin-2(1H)-one]"
15,2.09 nM,"CC(Cc1c[nH]c(=O)c(C(F)(F)F)c1)OC(=O)N1CCN(c2ccc(C(F)(F)F)cn2)CC1 (centres unmarked) [Example 62, 1-(6-Oxo-5-(trifluoromethyl)-1,6-dihydropyridin-3-yl)propan-2-yl 4-(5-(trifluoromethyl)pyridin-2-yl)piperazine-1-carboxylate]"
16,3.12 nM,"CC(Cc1c[nH]c(=O)c(C(F)(F)F)c1)OC(=O)N1CCN(c2ncc(Br)cn2)CC1 (centres unmarked) [Example 63, 1-(6-Oxo-5-(trifluoromethyl)-1,6-dihydropyridin-3-yl)propan-2-yl 4-(5-bromopyrimidin-2-yl)piperazine-1-carboxylate]"
17,1.99 nM,"CC(Cc1c[nH]c(=O)c(C(F)(F)F)c1)OC(=O)N1CCN(c2ccc(C#N)cn2)CC1 (centres unmarked) [Example 64, 1-(6-Oxo-5-(trifluoromethyl)-1,6-dihydropyridin-3-yl)propan-2-yl 4-(5-cyanopyridin-2-yl)piperazine-1-carboxylate]"
18,0.65 nM,"C[C@@H](Cc1c[nH]c(=O)c(C(F)(F)F)c1)OC(=O)N1CCN(c2ncc(F)cn2)CC1 [Example 65, (S)-1-(6-Oxo-5-(trifluoromethyl)-1,6-dihydropyridin-3-yl)propan-2-yl 4-(5-fluoropyrimidin-2-yl)piperazine-1-carboxylate]"
19,1.82 nM,"C[C@@H](Cc1c[nH]c(=O)c(C(F)(F)F)c1)OC(=O)N1CC[C@H](Nc2ncc(C(F)(F)F)cn2)C1 [Example 66, (S)-1-(6-Oxo-5-(trifluoromethyl)-1,6-dihydropyridin-3-yl)propan-2-yl (S)-3-((5-(trifluoromethyl)pyrimidin-2-yl)amino) pyrrolidine-1-carboxylate]"
20,0.76 nM,"Cc1cc(CC(C)OC(=O)N2CCN(c3ncc(C(F)(F)F)cn3)CC2)c[nH]c1=O (centres unmarked) [Example 67, 1-(5-Methyl-6-oxo-1,6-dihydropyridin-3-yl)propan-2-yl 4-(5-(trifluoromethyl)pyrimidin-2-yl)piperazine-1-carboxylate]"
21,1.11 nM,"O=C(c1ccc(F)c(Cc2c[nH]c(=O)c(C(F)(F)F)c2)c1)N1CCN(c2ncc(C(F)(F)F)cn2)CC1 [Example 68, 5-(2-Fluoro-5-(4-(5-(trifluoromethyl)pyrimidin-2-yl)piperazine-1-carbonyl)benzyl)-3-(trifluoromethyl)pyridin-2(1H)-one]"
22,4.98 nM,"C[C@@H](Cc1c[nH]c(=O)c(C(F)(F)F)c1)OC(=O)N1CCC(Nc2ncc(C(F)(F)F)cn2)CC1 [Example 72, (S)-1-(6-Oxo-5-(trifluoromethyl)-1,6-dihydropyridin-3-yl)propan-2-yl 4-((5-(trifluoromethyl)pyrimidin-2-yl)amino) piperidine-1-carboxylate]"
23,0.75 nM,"C[C@@H](Cc1c[nH]c(=O)c(C(F)(F)F)c1)OC(=O)N1CCN(c2ncc(C(F)(F)F)cn2)[C@@H](CO)C1 [Example 73, (S)-1-(6-Oxo-5-(trifluoromethyl)-1,6-dihydropyridin-3-yl)propan-2-yl (R)-3-(hydroxymethyl)-4-(5-(trifluoromethyl)pyrimidin-2-yl)piperazine-1-carboxylate]"
24,0.83 nM,"C[C@@H](Cc1c[nH]c(=O)c(C(F)(F)F)c1)OC(=O)N1CCN(c2ncc(CO)cn2)CC1 [Example 75, (S)-1-(6-Oxo-5-(trifluoromethyl)-1,6-dihydropyridin-3-yl)propan-2-yl 4-(5-(hydroxymethyl)pyrimidin-2-yl)piperazine-1-carboxylate]"
25,0.67 nM,"C[C@@H](Cc1c[nH]c(=O)c(C(F)(F)F)c1)OC(=O)N1CCN(c2cnc(C#N)cn2)CC1 [Example 76, (S)-1-(6-Oxo-5-(trifluoromethyl)-1,6-dihydropyridin-3-yl)propan-2-yl 4-(5-cyanopyrazin-2-yl)piperazine-1-carboxylate]"
26,2.15 nM,"C[C@@H](Cc1c[nH]c(=O)c(C(F)(F)F)c1)OC(=O)N1CC2CN(c3ncc(C(F)(F)F)cn3)CC2C1 (stereo partly drawn) [Example 77, (S)-1-(6-Oxo-5-(trifluoromethyl)-1,6-dihydropyridin-3-yl)propan-2-yl 5-(5-(trifluoromethyl)pyrimidin-2-yl) hexahydropyrrolo[3,4-c]pyrrole-2(1H)-carboxylate]"
